What was measured:
[1] = target: T1, recombinant rat mGluR2 expressed in CHO cells (Rattus norvegicus, UniProt P31421); test: [3H]-LY354740 binding on mGlu2 transfected CHO cell membranes (displacement binding assay); details: displacement of 10 nM [3H]-LY354740, membranes of CHO cells expressing rat mGlu2, room temperature, 1 hour; Ki calculated from IC50 with the Cheng and Prusoff equation
T1 construct: expressed in transfected cells; host or cells: CHO cells, stably transfected with pcD1mGR2 (pcDNA I-amp), G-418 selected; membranes used
From the text: In Table I below some specific Ki values of preferred compounds of the invention are presented. These values were obtained by indirect measurement of the affinity of the compounds for the recombinant rat mGluR2 expressed in CHO cells using a displacement binding assay with 3H-LY354740.
[^3H]-LY354740 Binding on mGlu2 Transfected CHO Cell Membranes
Transfection and Cell Culture
cDNA encoding the rat mGlu2 receptor protein in pBluescript II was obtained from Prof. S. Nakanishi (Kyoto, Japan), and subcloned into the eukaryotic expression vector pcDNA I-amp from Invitrogen (NV Leek, The Netherlands). This vector construct (pcD1mGR2) was co-transfected with a psvNeo plasmid encoding the gene for neomycin resistance, into CHO cells by a modified calcium phosphate method described by Chen & Okayama (1988). The cells were maintained in Dulbecco's Modified Eagle medium with reduced L-glutamine (2 mM final concentration) and 10% dialysed foetal calf serum from Gibco BRL (Basel, Switzerland). Selection was made in the presence of G-418 (1000 ug/mL final). Clones were identified by reverse transcription of 5 μg total RNA, followed by PCR using mGlu2 receptor specific primers 5′-[…]-3′ and 5′-[…]-3′ in 60 mM Tris HCl (pH 10), 15 mM (NH4)2SO4, 2 mM MgCl2, 25 units/mL Taq Polymerase with 30 cycles annealing at 60° C. for 1 min., extention at 72° C. for 30 s, and 1 min. 95° C. denaturation.
Cells, cultured as above, were harvested and washed three times with cold PBS and frozen at −80° C. The pellet was resuspended in cold 20 mM HEPES-NaOH buffer containing 10 mM EDTA (pH 7.4), and homogenised with a polytron (Kinematica, AG, Littau, Switzerland) for 10 s at 10000 rpm. After centrifugation for 30 min. at 4° C., the pellet was washed once with the same buffer, and once with cold 20 mM HEPES-NaOH buffer containing 0.1 mM EDTA, (pH 7.4). Protein content was measured using the Pierce method (Socochim, Lausanne, Switzerland) using bovine serum albumin as standard.
After thawing, the membranes were resuspended in cold 50 mM Tris-HCl buffer containing 2 mM MgCl2 and 2 mM CaCl2, (pH 7) (binding buffer). The final concentration of the membranes in the assays was 25 μg protein/mL. Inhibition experiments were performed with membranes incubated with 10 nM [^3H]-LY354740 at room temperature, for 1 hour, in presence of various concentrations of the compound to be tested. Following the incubations, membranes were filtered onto Whatmann GF/C glass fiber filters and washed 5 times with cold binding buffer. Non specific binding was measured in the presence of 10 μM DCG IV. After transfer of the filters into plastic vials containing 10 mL of Ultima-gold scintillation fluid (Packard, Züirich, Switzerland), the radioactivity was measured by liquid scintillation in a Tri-Carb 2500 TR counter (Packard, Züirich, Switzerland).
The inhibition curves were fitted with a four parameter logistic equation giving IC50 values, and Hill coefficients and the Ki values were calculated using the Cheng and Prusoff equation (Cheng, Y. and Prusoff, W. H., Biochem. Pharmacol. 1973, 22, 3099-3108). A small Ki value expresses high affinity of the compound towards the receptor.

T1 sequence (P31421 19-872): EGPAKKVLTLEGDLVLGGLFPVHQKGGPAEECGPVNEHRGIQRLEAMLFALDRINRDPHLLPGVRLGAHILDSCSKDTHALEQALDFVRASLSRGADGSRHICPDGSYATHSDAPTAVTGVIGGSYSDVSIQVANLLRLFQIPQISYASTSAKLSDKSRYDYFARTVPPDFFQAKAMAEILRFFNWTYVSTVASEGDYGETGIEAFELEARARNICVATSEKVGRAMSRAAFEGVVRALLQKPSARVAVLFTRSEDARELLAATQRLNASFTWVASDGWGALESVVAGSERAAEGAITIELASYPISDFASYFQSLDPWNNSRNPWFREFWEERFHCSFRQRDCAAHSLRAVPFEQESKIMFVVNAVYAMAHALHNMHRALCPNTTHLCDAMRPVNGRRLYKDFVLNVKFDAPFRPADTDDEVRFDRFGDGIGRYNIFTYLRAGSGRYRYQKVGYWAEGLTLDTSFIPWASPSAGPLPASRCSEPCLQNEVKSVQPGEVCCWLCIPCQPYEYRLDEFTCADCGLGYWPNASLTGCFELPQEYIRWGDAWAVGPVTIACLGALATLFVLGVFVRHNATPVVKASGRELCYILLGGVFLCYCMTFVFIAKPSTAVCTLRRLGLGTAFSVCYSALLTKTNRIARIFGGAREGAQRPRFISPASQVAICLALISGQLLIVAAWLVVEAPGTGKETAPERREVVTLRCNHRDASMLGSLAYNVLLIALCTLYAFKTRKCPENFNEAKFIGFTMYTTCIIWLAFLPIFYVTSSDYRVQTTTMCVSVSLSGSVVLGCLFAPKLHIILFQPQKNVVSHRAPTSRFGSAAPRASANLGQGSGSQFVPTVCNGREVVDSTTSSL

Ki [1] [nM] | melting point [°C] | Structure (SMILES)
74 | 200 | O=C1CC(c2cccc(-n3nncc3CO)c2)=Nc2cc(N3CCOCC3)c(C(F)(F)F)cc2N1 [Example 1, 4-[3-(5-Hydroxymethyl-[1,2,3]triazol-1-yl)-phenyl]-7-morpholin-4-yl-8-trifluoromethyl-1,3-dihydro-benzo[b][1,4]diazepin-2-one]
20 | 220 | N#Cc1cc(C2=Nc3cc(N4CCOCC4)c(C(F)(F)F)cc3NC(=O)C2)ccn1 [Example 2, 4-(8-Morpholin-4-yl-4-oxo-7-trifluoromethyl-4,5-dihydro-3H-benzo[b][1,4]diazepin-2-yl)-pyridine-2-carbonitrile]
35 | 219 | N#Cc1cccc(C2=Nc3ccc(-n4cccc4)cc3NC(=O)C2)c1 [Example 4, 3-(4-oxo-7-Pyrrol-1-yl-4,5-dihydro-3H-benzo[b][1,4]diazepin-2-yl)-benzonitrile]
75 | 215 | N#Cc1cccc(C2=Nc3cc(I)c(-n4cccc4)cc3NC(=O)C2)c1 [Example 9, 3-(8-Iodo-4-oxo-7-pyrrol-1-yl-4,5-dihydro-3H-benzo[b][1,4]diazepin-2-yl)-benzonitrile]
75 |  | N#Cc1cccc(C2=Nc3ccc(-n4ccc(-c5ccccc5)c4)cc3NC(=O)C2)c1 [Example 12, 3-[4-oxo-7-(3-Phenyl-pyrrol-1-yl)-4,5-dihydro-3H-benzo[b][1,4]diazepin-2-yl]-benzonitrile]
25 | 220 | O=C1CC(c2cccc(-n3ccnc3)c2)=Nc2ccc(-n3cccc3)cc2N1 [Example 16, 4-(3-Imidazol-1-yl-phenyl)-8-pyrrol-1-yl-1,3-dihydro-benzo[b][1,4]diazepin-2-one]
44 |  | COc1cc2c(cc1-n1cccc1)NC(=O)CC(c1cccc(C#N)c1)=N2 [Example 17, 3-(8-Methoxy-4-oxo-7-pyrrol-1-yl-4,5-dihydro-3H-benzo[b][1,4]diazepin-2-yl)-benzonitrile]
80 | > 250 | COc1cc2c(cc1-n1cccc1C(C)(C)C)NC(=O)CC(c1cccc(C#N)c1)=N2 [Example 18, 3-[7-(2-tert.-Butyl-pyrrol-1-yl)-8-methoxy-4-oxo-4,5-dihydro-3H-benzo[b][1,4]diazepin-2-yl]-benzonitrile]
28 | 238 to 240 | O=C1CC(c2cccc(-c3nc(CO)cs3)c2)=Nc2ccc(-n3cccc3)cc2N1 [Example 20, 4-[3-(4-Hydroxymethyl-thiazol-2-yl)-phenyl]-8-pyrrol-1-yl-1,3-dihydro-benzo[b][1,4]diazepin-2-one]
7.5 | 206 to 209 | O=C1CC(c2cccc(-n3ccnn3)c2)=Nc2ccc(-n3cccc3)cc2N1 [Example 21, 8-Pyrrol-1-yl-4-(3-[1,2,3]triazol-1-yl-phenyl)-1,3-dihydro-benzo[b][1,4]diazepin-2-one]
23 | 251 to 253 | O=C1CC(c2cccc(-c3ncco3)c2)=Nc2ccc(-n3cccc3)cc2N1 [Example 22, 4-(3-Oxazol-2-yl-phenyl)-8-pyrrol-1-yl-1,3-dihydro-benzo[b][1,4]diazepin-2-one]
29 | 222 to 224 | CCOC(=O)c1ncoc1-c1cccc(C2=Nc3ccc(-n4cccc4)cc3NC(=O)C2)c1 [Example 23, 5-[3-(4-oxo-7-Pyrrol-1-yl-4,5-dihydro-3H-benzo[b][1,4]diazepin-2-yl)-phenyl]-oxazole-4-carboxylic Acid Ethyl Ester]
 | 215 | Cc1cc2c(cc1C(F)(F)F)NC(=O)CC(c1cccc(-n3nncc3CO)c1)=N2 [Example 68, 4-[3-(5-Hydroxymethyl-[1,2,3]triazol-1-yl)-phenyl]-7-methyl-8-trifluoromethyl-1,3-dihydro-benzo[b][1,4]diazepin-2-one]
 | 240 | Cc1cc(-c2cccc(C3=Nc4cc(C)c(C(F)(F)F)cc4NC(=O)C3)c2)on1 [Example 70, 7-Methyl-4-[3-(3-methyl-isoxazol-5-yl)-phenyl]-8-trifluoromethyl-1,3-dihydro-benzo[b][1,4]diazepin-2-one]
 | 258 | O=C1CC(c2cccc(-n3cncn3)c2)=Nc2cc(Cl)c(C(F)(F)F)cc2N1 [Example 71, 7-Chloro-4-(3-[1,2,4]triazol-1-yl-phenyl)-8-trifluoromethyl-1,3-dihydro-benzo[b][1,4]diazepin-2-one]
 | 225 | O=C1CC(c2cccc(-n3ccnc3)c2)=Nc2cc(Cl)c(C(F)(F)F)cc2N1 [Example 72, 7-Chloro-4-(3-imidazol-1-yl-phenyl)-8-trifluoromethyl-1,3-dihydro-benzo[b][1,4]diazepin-2-one]
 | 219 | O=C1CC(c2cccc(-n3ccnn3)c2)=Nc2cc(Cl)c(C(F)(F)F)cc2N1 [Example 73, 7-Chloro-4-(3-[1,2,3]triazol-1-yl-phenyl)-8-trifluoromethyl-1,3-dihydro-benzo[b][1,4]diazepin-2-one]
 | 241 | Cc1cc2c(cc1C(F)(F)F)NC(=O)CC(c1cccc(-n3cncn3)c1)=N2 [Example 74, 7-Methyl-4-(3-[1,2,4]triazol-1-yl-phenyl)-8-trifluoromethyl-1,3-dihydro-benzo[b][1,4]diazepin-2-one]
 | 237 | Cc1cc2c(cc1C(F)(F)F)NC(=O)CC(c1cccc(-n3ccnn3)c1)=N2 [Example 76, 7-Methyl-4-(3-[1,2,3]triazol-1-yl-phenyl)-8-trifluoromethyl-1,3-dihydro-benzo[b][1,4]diazepin-2-one]
 | 206 to 207 | CC(=O)OCc1coc(-c2cccc(C3=Nc4ccc(-n5cccc5)cc4NC(=O)C3)c2)n1 [Example 78, Acetic Acid 2-[3-(4-oxo-7-Pyrrol-1-yl-4,5-dihydro-3H-benzo[b][1,4]diazepin-2-yl)-phenyl]-oxazol-4-ylmethyl Ester]
 | 182 to 183 | CNCc1coc(-c2cccc(C3=Nc4ccc(-n5cccc5)cc4NC(=O)C3)c2)n1 [Example 79, 4-[3-(4-Methylaminomethyl-oxazol-2-yl)-phenyl]-8-pyrrol-1-yl-1,3-dihydro-benzo[b][1,4]diazepin-2-one]
 | 172 to 175 | CN(C)Cc1coc(-c2cccc(C3=Nc4ccc(-n5cccc5)cc4NC(=O)C3)c2)n1 [Example 80, 4-[3-(4-Dimethylaminomethyl-oxazol-2-yl)-phenyl]-8-pyrrol-1-yl-1,3-dihydro-benzo[b][1,4]diazepin-2-one]
 | 166 to 167 | O=C1CC(c2cccc(-c3nc(CN4CCOCC4)co3)c2)=Nc2ccc(-n3cccc3)cc2N1 [Example 81, 4-[3-(4-Morpholin-4-ylmethyl-oxazol-2-yl)-phenyl]-8-pyrrol-1-yl-1,3-dihydro-benzo[b][1,4]diazepin-2-one]
 | 243 to 244 | N#Cc1cc(C2=Nc3ccc(-n4cccc4)cc3NC(=O)C2)ccn1 [Example 82, 4-(4-oxo-7-Pyrrol-1-yl-4,5-dihydro-3H-benzo[b][1,4]diazepin-2-yl)-pyridine-2-carbonitrile]
 | 241 to 242 | Cc1cc2c(cc1C(F)(F)F)NC(=O)CC(c1cccc(-c3ncoc3C)c1)=N2 [Example 83, 7-Methyl-4-[3-(5-methyl-oxazol-4-yl)-phenyl]-8-trifluoromethyl-1,3-dihydro-benzo[b][1,4]diazepin-2-one]

— US6548495B2, “Dihydro-benzo [B] [1,4] diazepin-2-one derivatives” (Hoffmann-La Roche Inc., priority 2002, dated 2003)
